The NIST ThermoML archive (doi:10.1016/j.jct.2006.03.008)
Values joined by “and” are separate entries in the source; they are usually repeats but may differ in a detail not shown here. Identical values can stand only once.

Conditions: for vapor or sublimation pressure: Closed cell (Static) method; for mass density: Fluid (supercritical or subcritical phases), Bellows volumetry

CC(C)C [2-methylpropane]
Conditions | Critical pressure [kPa] | Critical temperature [K] | mass density | vapor or sublimation pressure
310 K, Liquid | – | – | – | 489.5 kPa [middle of 6 runs]
405 K, 3464.7 kPa | – | – | 185 kg/m3 | –
405 K, 3467.3 kPa | – | – | 199.9 kg/m3 and 200 kg/m3 | –
405 K, 3468 kPa | – | – | 200 kg/m3 | –
405 K, 3468.4 kPa | – | – | 200 kg/m3 | –
405 K, 3469.9 kPa | – | – | 264.9 kg/m3 | –
405 K, Liquid | – | – | – | 3468.8 kPa [middle of 6 runs]
406 K, 3523.7 kPa | – | – | 184.9 kg/m3 | –
406 K, 3525.7 kPa | – | – | 199.9 kg/m3 | –
406 K, 3528.1 kPa | – | – | 264.9 kg/m3 | –
406 K, Liquid | – | – | – | 3527 kPa [middle of 6 runs]
407 K, 3582.1 kPa | – | – | 185.4 kg/m3 | –
407 K, 3585 kPa | – | – | 200.3 kg/m3 | –
407 K, Liquid | – | – | – | 3585.5 kPa [middle of 7 runs]
407.5 K, 3613.8 kPa | – | – | 185 kg/m3 | –
407.5 K, 3617.5 kPa | – | – | 199.9 kg/m3 | –
407.5 K, 3617.7 kPa | – | – | 200.4 kg/m3 | –
407.5 K, 3620.6 kPa | – | – | 265 kg/m3 | –
407.5 K, Liquid | – | – | – | 3619 kPa [middle of 6 runs]
407.89 K, 3632.3 kPa | – | – | 184.9 kg/m3 | –
407.89 K, 3637.6 kPa | – | – | 200.1 kg/m3 | –
407.89 K, 3640.5 kPa | – | – | 240 kg/m3 | –
407.89 K, 3640.6 kPa | – | – | 250 kg/m3 | –
407.89 K, 3640.8 kPa | – | – | 250.2 kg/m3 | –
407.89 K, 3640.9 kPa | – | – | 241.4 kg/m3 | –
407.89 K, 3641.3 kPa | – | – | 250.5 kg/m3 | –
407.89 K, 3644.5 kPa | – | – | 263.7 kg/m3 | –
407.89 K, 3644.6 kPa | – | – | 264.9 kg/m3 | –
408 K, 3635.8 kPa | – | – | 184.1 kg/m3 | –
408 K, 3638.1 kPa | – | – | 184.9 kg/m3 | –
408 K, 3643.7 kPa | – | – | 200 kg/m3 | –
408 K, 3644.2 kPa | – | – | 200.4 kg/m3 | –
408 K, 3645.6 kPa | – | – | 220 kg/m3 | –
408 K, 3646.4 kPa | – | – | 227.5 kg/m3 | –
408 K, 3646.6 kPa | – | – | 240 kg/m3 | –
408 K, 3646.8 kPa | – | – | 220.1 kg/m3 | –
408 K, 3647.4 kPa | – | – | 249.9 kg/m3 | –
408 K, 3652.4 kPa | – | – | 265.5 kg/m3 | –
409 K, 3692.1 kPa | – | – | 184.7 kg/m3 | –
409 K, 3692.8 kPa | – | – | 184.9 kg/m3 | –
409 K, 3702.2 kPa | – | – | 200 kg/m3 | –
409 K, 3702.8 kPa | – | – | 200.4 kg/m3 | –
409 K, 3708.3 kPa | – | – | 219.8 kg/m3 | –
409 K, 3708.5 kPa | – | – | 219.9 kg/m3 | –
409 K, 3708.9 kPa | – | – | 220.4 kg/m3 | –
409 K, 3709.7 kPa | – | – | 224.2 kg/m3 | –
409 K, 3710.5 kPa | – | – | 227.4 kg/m3 | –
409 K, 3713.6 kPa | – | – | 239.9 kg/m3 | –
409 K, 3717.7 kPa | – | – | 250 kg/m3 | –
409 K, 3718.4 kPa | – | – | 250.4 kg/m3 | –
409 K, 3729 kPa | – | – | 265 kg/m3 | –
410 K, 3745.3 kPa | – | – | 185 kg/m3 | –
410 K, 3757.5 kPa | – | – | 200 kg/m3 | –
410 K, 3758.2 kPa | – | – | 200 kg/m3 | –
410 K, 3764.3 kPa | – | – | 210 kg/m3 | –
410 K, 3769.4 kPa | – | – | 220 kg/m3 | –
410 K, 3772.2 kPa | – | – | 227.4 kg/m3 | –
410 K, 3772.5 kPa | – | – | 228.1 kg/m3 | –
410 K, 3779.4 kPa | – | – | 240 kg/m3 | –
410 K, 3785.9 kPa | – | – | 250 kg/m3 | –
410 K, 3786.3 kPa | – | – | 250.4 kg/m3 | –
410 K, 3802.3 kPa | – | – | 265 kg/m3 | –
410 K, 3802.8 kPa | – | – | 265.2 kg/m3 | –
Liquid, Direct measurement | 3639 | – | – | –
Liquid, Visual observation in an unstirred cell | – | 407.88 | – | –
